# Patent publication US20100190826A1, “BENZIMIDAZOLE DERIVATIVE” (priority 2007, published 2010)
# Experiments:
# human 17βHSD type 5 = target: T1, human 17βHSD type 5 (Homo sapiens, UniProt P42330); assay: Measurement of enzyme activity of human 17βHSD type 5 (testosterone production from androstenedione); assay type: biochemical; conditions: purified enzyme 10 μg/mL, androstenedione 300 nM, NADPH 200 μM, pH 6.0, room temperature 2 hours; read-out: Type5 IC50
# T1 construct: A full-length cDNA encoding human 17βHSD type 5; GST (cleaved yes); made in house; host or cells: Escherichia coli BL21
# T1 sequence (P42330 1-323): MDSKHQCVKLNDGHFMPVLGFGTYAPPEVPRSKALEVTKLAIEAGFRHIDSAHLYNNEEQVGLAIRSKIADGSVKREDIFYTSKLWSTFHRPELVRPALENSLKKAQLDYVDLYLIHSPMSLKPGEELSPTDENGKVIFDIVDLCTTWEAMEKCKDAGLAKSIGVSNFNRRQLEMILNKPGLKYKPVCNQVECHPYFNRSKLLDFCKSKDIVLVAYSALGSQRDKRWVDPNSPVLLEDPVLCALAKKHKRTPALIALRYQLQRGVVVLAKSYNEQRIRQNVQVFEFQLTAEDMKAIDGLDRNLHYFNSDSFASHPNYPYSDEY
# Description: (§1) An excellent selective inhibitory activity against human 17βHSD type 5 of the compounds of the present invention was confirmed by the test method described below. In this connection, the test may be carried out by referring to the details of test procedure described in Maniatis, T. et al., Molecular Cloning—A Laboratory Manual Cold Spring Harbor Laboratory, NY (1982) and the like. In addition, genes encoding human 17βHSD type5 and type3 described in Sections 1 and 2 below, and human 17βHSD type 5 and type 3 may be obtained by the method described in Molecular Endocrinology, 1997, 11(13), 1971-1984.
# 1. Isolation of Gene Encoding Human 17βHSD Type 5 and Enzyme Purification
# A full-length cDNA encoding human 17βHSD type 5 used in the pharmacological test of the present invention was obtained by the PCR method using a cDNA derived from a human lung cancer-derived cell line, A549 cells as a template. The nucleotide sequence of the obtained cDNA was analyzed by the dideoxyterminator method, and the clone matched with the known human 17βHSD type 5 sequence (GenBank accession No. NM_003739) was selected. Escherichia coli BL21 was transformed with a plasmid containing the cDNA and cultured on a large scale. The proteins were purified by using GSTrapFF column (manufactured by Amersham) and PreScissionProtease (manufactured by Amersham). The purification method was carried out in accordance with the instructions attached to the GSTrapFF column.
# (§2) 3. Measurement of Enzyme Activities of Human 17βHSD Type 5 and Type 3
# (§3) Enzyme activity was measured referring to Trevor M. Penning, et al., Biochem. J., 351, 67-77, (2000). Specifically, using a 100 mM potassium phosphate buffer (pH 6.0), (1) the enzyme purified in Section 1 at a final concentration of 10 μg/mL, (2) androstenedione at a final concentration of 300 nM, (3) NADPH at a final concentration of 200 μM, and (4) a test substance, were mixed to react at room temperature for 2 hours, and then the amount of testosterone produced was measured using DELFIA (registered trademark) Testosterone Reagents R050-201 (manufactured by PerkinElmer). The measurement was performed in accordance with the attached instructions. The amount of reduction of testosterone production in the presence of the compound was obtained as a relative value with respect to the amount of testosterone in the absence of the enzyme set at 0% and the amount of testosterone produced in the absence of the compound set at 100%. Then, IC50 values were calculated by the Logistic regression method.
# human 17βHSD type 3 = target: T2, human 17βHSD type 3 (Homo sapiens, UniProt P37058); assay: Measurement of enzyme activity of human 17βHSD type 3; assay type: biochemical; conditions: enzyme source: supernatant of transformed 293 cells; read-out: Type3 IC50
# T2 construct: A full-length cDNA encoding human 17βHSD type 3; made in house; host or cells: human fetus kidney-derived 293 cells (transient, 24 h); supernatant of disrupted cells
# T2 sequence (P37058 1-310): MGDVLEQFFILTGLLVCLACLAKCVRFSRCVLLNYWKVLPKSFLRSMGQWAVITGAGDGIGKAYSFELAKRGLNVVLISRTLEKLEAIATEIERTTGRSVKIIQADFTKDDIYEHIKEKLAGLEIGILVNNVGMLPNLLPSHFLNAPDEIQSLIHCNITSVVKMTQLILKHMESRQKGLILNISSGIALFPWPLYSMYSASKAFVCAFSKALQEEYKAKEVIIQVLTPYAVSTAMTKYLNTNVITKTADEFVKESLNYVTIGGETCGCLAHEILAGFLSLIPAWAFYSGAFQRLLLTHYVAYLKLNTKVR
# Description: as §1
# 2. Isolation of Gene Encoding Human 17βHSD Type 3 and Enzyme Purification
# A full-length cDNA encoding human 17βHSD type 3 used in the pharmacological test of the present invention was obtained by the PCR method using a cDNA derived from human testis as a template. The nucleotide sequence of the obtained cDNA was analyzed by the dideoxyterminator method, and the clone matched with the known human 17βHSD type 3 sequence (GenBank accession No. BCO34281) was selected. Subsequently, human fetus kidney-derived cell line, 293 cells, were transformed with a plasmid containing the cDNA, and the cells were collected 24 hours later. The collected cells were then disrupted in a phosphate buffer solution containing 5% glycerol (500 μL per 100 mm-dish of a phosphate buffer solution (pH 7.4, 200 mM) containing 5% glycerol) and centrifuged (16000 rpm, 5 min, 4° C.), and the supernatant was used as an enzyme source.
# as §2, §3
# [1] = target: T3, human 17βHSD type 5-expressing LNCaP cells (Homo sapiens, UniProt P42330); assay: Cell growth inhibitory activity using LNCaP cells expressing human 17βHSD type 5 (androstenedione-stimulated, CellTiter-Glo); assay type: cell-based; conditions: androstenedione 10 nM, culturing for 7 days; read-out: LNCaP-17β5 IC50
# T3 sequence (P42330 1-323): T1 sequence (P42330 1-323)
# Experimental: Subsequently, LNCaP cells expressing human 17βHSD type 5 were constructed from a human prostate cancer-derived cell line, LNCaP cells, and a cell growth inhibitory activity of the compound of the present invention was evaluated.
# 4. Construction of LNCaP Cells Expressing Human 17βHSD Type 5
# A full-length cDNA encoding human 17βHSD type 5 used in the pharmacological test of the present invention was obtained by the PCR method using a cDNA derived from a human lung cancer-derived cell line, A549 cells, as a template. The nucleotide sequence of the obtained cDNA was analyzed by the dideoxyterminator method, and the clone matched with the known human 17βHSD type 5 sequence (GenBank accession No. NM_003739) was selected. The human prostate cancer-derived cell line LNCaP cells were transformed with a plasmid containing the cDNA and the cell line showing stable expression was obtained.
# 5. Measurement of Cell Growth Capability Using LNCaP Cells Expressing Human 17βHSD Type 5
# 9000 cells/well of the transformed cells obtained in Section 4 above were seeded in a 96-well plate and cultured overnight. Then, androstenedione, in conjunction with a test compound, was added thereto at a final concentration of 10 nM, followed by culturing for 7 days. After the culturing, number of the cells was counted using a CellTiter-Glo (registered trademark) Luminescent Cell Viability Assay (Promega). The CellTiter-Glo (registered trademark) Luminescent Cell Viability Assay is a reagent that measures the number of the cells by monitoring an intracellular ATP level from the luminescence intensity by luciferase. The experimental manipulation was carried out in accordance with the attached instructions. The cell growth inhibitory activity in the presence of a test compound was calculated as a relative value with respect to the number of the cells in the absence of androstenedione set at proliferation of 0%, and the number of the cells in the presence of androstenedione and in the absence of the test compound set at proliferation of 100%. Then, IC50 values were calculated by the Logistic regression method.
# 5α-reductase = conditions: patients with BPH, after administration of finasteride; cited from earlier work
Compound,IC50 (human 17βHSD type 5),IC50 (human 17βHSD type 3),GI50 [1],concentration of DHT in the prostate relative to the concentration before the administration (5α-reductase),increase of the concentration of testosterone in the prostate (5α-reductase)
"N#Cc1ccc2c(ccn2-c2cccc(C(=O)O)c2)c1 [Example 1, 3-(5-cyano-1H-indol-1-yl) benzoic acid]",200 nM,> 10000 nM,6680 nM,–,–
O=C(O)c1cccc(-n2cc(-c3ccccc3)c3cc(C(F)(F)F)ccc32)c1 [Example 6],50 nM,1800 nM,46 nM,–,–
O=C(O)c1cccc(-n2c(-c3ccccc3)nc3cc(C(F)(F)F)ccc32)c1 [Example 17],180 nM,6400 nM,66 nM,–,–
O=C(O)c1cccc(-n2cnc3cc(C(F)(F)F)ccc32)c1 [Example 20],120 nM,7300 nM,101 nM,–,–
Cc1nc2cc(C(F)(F)F)ccc2n1-c1cccc(C(=O)O)c1 [Example 21],110 nM,4700 nM,102 nM,–,–
COc1nc2cc(C(F)(F)F)ccc2n1-c1cccc(C(=O)O)c1 [Example 32],120 nM,–,46 nM,–,–
O=C(O)c1cccc(-n2c(Cc3ccccc3)nc3cc(C(F)(F)F)ccc32)c1 [Example 38],96 nM,> 10000 nM,45 nM,–,–
O=C(O)c1cccc(-n2c(COc3ccccc3)nc3cc(C(F)(F)F)ccc32)c1 [Example 44],40 nM,–,34 nM,–,–
"COCCc1cn(-c2cccc(C(=O)O)c2)c2ccc(C(F)(F)F)cc12 [Example 47, 3-[3-(2-methoxyethyl)-5-(trifluoromethyl)-1H-indol-1-yl]benzoic acid]",180 nM,2500 nM,92 nM,–,–
"O=C(O)c1cccc(-n2c(C(F)(F)F)nc3cc(C(F)(F)F)ccc32)c1 [Example 54, 3-[2,5-bis(trifluoromethyl)-1H-benzimidazol-1-yl]benzoic acid]",70 nM,3200 nM,141 nM,–,–
CC(C)(C)NC(=O)[C@H]1CC[C@H]2[C@@H]3CC[C@H]4NC(=O)C=C[C@]4(C)[C@H]3CC[C@]12C [finasteride],–,–,–,about 20%,4 fold
